From publication PMC3412939 (Biochimica et biophysica acta, 2012)

Experiments:
[1] = Blue shift of tryptophan emission spectrum on membrane binding; format: physicochemical; conditions: PC/PG SUV, relative to spectrum without lipid; excitation 280 nm; mean ± SE
[2] = Acrylamide quenching of tryptophan fluorescence; format: physicochemical; conditions: 100 μM PC/PG (7:3) SUV, cholesterol-free

Blue shift of tryptophan emission at saturation [1]: 13 ± 2 nm
Ratio of quenching constants KSV(lipid)/KSV(no lipid) [2]: 0.41 ± 0.03
Substance: wRVIRLVRVFRIFKLSRH [W-S4]
